Assay results published in patent publication US20120065181A1, “METHOD OF PROVIDING NEUROPROTECTION USING SUBSTITUTED PORPHYRINS” (priority 2009, published 2012).

Key:
[1] = test system: rats subjected to 90 min MCAO; assay: Neurologic score after 90 min middle cerebral artery occlusion (MCAO); format: in vivo, rat; conditions: then twice daily s.c. for 7 days
Description: (§1) Male Wistar rats (250-275 gm; Harlan Sprague Dawley, Inc. Indianapolis, Ind.) were anesthetized with 64-mg/kg intraperitoneal sodium pentobarbital and positioned in a stereotactic head frame. The skin was infiltrated with 1.0% lidocaine and a midline scalp incision was made. A burr hole was drilled over the left hemisphere, 7.2 mm anterior to the interauralline and 1.4 mm lateral to the sagittal suture. An intracerebroventricular (ICV) cannula (33 gauge) was positioned with the tip in the left lateral ventricle and fixed in place with screws and cyanoacrylate. The incision was closed with suture around this assembly. After emergence from anesthesia, the animals were returned to their cages with free access to water and food.
Following 2-3 days recovery, rats were allowed access to water but fasted from food for 12 hours to standardize glycemic state. Rats were then anesthetized with isoflurane in O2. Following tracheal intubation, the lungs were mechanically ventilated to maintain normocapnia. A 22-g needle thermistor was percutaneously placed adjacent to the skull beneath the temporalis. Pericranial temperature was servoregulated at 37.5±0.1° C. by surface heating or cooling. […]
Rats were subjected to 90 min middle cerebral artery occlusion. […] The doses were repeatedly twice daily as subcutaneous injections for 7 days after which neurologic function was assessed as described above. […]

[2] = test system: subarachnoid hemorrhage (SAH) in mice; assay: Neurologic evaluation after murine subarachnoid hemorrhage (endovascular perforation); format: in vivo
Description: At completion of the predefined recovery interval, rats underwent a neurologic examination to evaluate sensorimotor function. The neurological scoring system evaluates four different functions (general status, simple motor deficit, complex motor deficit, and sensory deficit). The score given to each animal (by an observer blinded to group assignment) was the sum of all four individual scores, 0 being the minimum (best) score and 48 being the maximum (worst) score. This examination was developed combining features from several neurologic evaluations reported for rat MCAO and has been used in two long-term MCAO outcome studies to assess for differences in treatment outcome (Yokoo et al. Anesth Analg. 2004; 99:896-903; Sakai et al. Anesthesiology. 2007; 106:92-99; discussion 98-10.) Values from this scoring system correlate well with total infarct volume in rats allowed to survive 8 weeks post-MCAO (R2 value of 0.78, P=0.006, Sakai et al.) as well as 2 and 8 weeks post-MCAO (Yokoo et al.). […]
Seventy-two hrs post-SAH, mice were neurologically evaluated as described above, with the experimenter blinded to group assignment. Normal neurologic function was scored as 0 with the maximal deficit score=48. […]

IL-6 = assay: Cerebral IL-6 level by ELISA after MCAO; format: in vivo, rat; conditions: 225 μg/kg IV 5 min after reperfusion, s.c. at 12 and 18 hrs post-MCAO; brains harvested 24 hrs post-MCAO; n=3; P=0.04
Description: (§2) Rats were subjected to 90 min middle cerebral artery occlusion. Five min after onset of reperfusion, rats were randomly treated with vehicle (n=3) or 225 μg/kg IV MnTnHex-2-PyP^5+ (n=3) followed by subcutaneous vehicle or 225 μg/kg MnTnHex-2-PyP^5+, respectively, at 12 and 18 hrs post-MCAO. Brains were harvested at 24 hrs post-MCAO and analyzed for TNF-α and IL-6 by fluorescent enzyme-linked immunosorbent assay. Whole cell lysates from the whole brain tissue were obtained at the end of each experiment according to manufacture's protocol (Roche) with light modification. In brief, about 100 mg of brain tissue, which was diced into small pieces using a clean razor blade on ice, was placed into a pre-chilled microcentrifuge tube and further processed with […] of ice-cold lysis buffer (50 mM Tris-HCl, pH 7.5, 150 mM NaCl, 1% Nonidet P40, 0.5% sodium deoxycholat, 0.1% SDS, protease inhibitors). Samples were homogenized 10 seconds and incubated for 30 minutes on ice. Homogenates were centrifuged at 14,000 g for 10 minutes at 4° C. Supernatants were collected and proteins were measured by a BCA Protein Assay Kit (Thermo Scientific). Cerebral levels of TNF-α and IL-6 were determined by rat specific ELISA kits (Thermo Scientific, IL) and normalized by the total amount of proteins (pg/mg).

NF-κB = assay: EMSA of NF-κB DNA binding in nuclear extracts of ischemic brain after MCAO; format: in vivo, rat; conditions: 225 μg/kg IV after 90 min MCAO, ischemic brain harvested six hr later, 2 treated vs 2 vehicle rats
Description: (§3) Intravenous MnTnHex-2-PyP^5+ (hexyl) decreases post-ischemic NF-κB DNA binding to a κB consensus oligo due inhibition of NF-κB p65 nuclear translocation. Data are from 4 rats subjected to 90 min MCAO and then treated with vehicle or MnTnHex-2-PyP^5+ (225 μg/kg IV). Six hr later, ischemic brain was harvested for EMSA performed on nuclear extracts ([…]). Upper gel (EMSA): D and E (without and with p65 antibody, respectively) are rat #1 (vehicle). F and G (without and with p65 antibody, respectively) are rat #2 (hexyl). H and I=vehicle rat #3 (with and without p65). J and K=rat #4 (hexyl) with and without p65. A-C are control lanes (A=probe only, B=positive control (HeLa nuclear extract), C=cold competitor). Two slower migrating DNA binding complexes are observed (shift). The proteins in the slower migrating complexes were identified by super shift analysis with […] of p65-specific antibody. […] Lower gel: […]) from the same nuclear samples were immunoblotted with NF-κB p65-specific antibody, confirming NF-κB inhibition by MnTnHex-2-PyP^5+.

[3] = test system: cerebral arteries of mice post-SAH; assay: Arterial cross-sectional diameter by intraluminal arterial casting after murine SAH; format: in vivo; conditions: 72 hrs post-SAH
Description: Male mice (body weight=20-25 gm) were anesthetized with isoflurane and subjected to endovascular perforation of the right anterior cerebral artery just distal to the middle cerebral artery bifurcation. Mice were allowed to recover from anesthesia and randomly assigned to treatment ([…] MnTnHex-2-PyP^5+ twice per day, i.p. with treatment begun 60 min post-SAH, n=15) and vehicle (saline 0.1 ml twice a day, n=15) groups.
The mice were anesthetized and subjected to intraluminal arterial casting for later determination of arterial cross-sectional diameter. Subarachnoid clot size was graded using a standardized scoring system.
Three mice died in the vehicle group (2 died 3 days post-SAH, 1 died 2 days post-SAH). Neurologic scores in surviving mice and clot size were compared with the Mann-Whitney U statistic. Vessel diameters were compared with the Student's t test.

TNF-α = assay: Cerebral TNF-α level by ELISA after MCAO; format: in vivo, rat; conditions: 225 μg/kg IV 5 min after reperfusion, s.c. at 12 and 18 hrs post-MCAO; brains harvested 24 hrs post-MCAO; n=3; P=0.04
Description: as §2

[4] = test system: rats subjected to 90 min MCAO; assay: Cerebral infarct volume after 90 min MCAO; format: in vivo, rat; conditions: 7 days after MCAO
Description: as §1
Following 2-3 days recovery, rats were allowed access to water but fasted from food for 12 hours to standardize glycemic state. Rats were then anesthetized with isoflurane in O2. Following tracheal intubation, the lungs were mechanically ventilated to maintain normocapnia. A 22-g needle thermistor was percutaneously placed adjacent to the skull beneath the temporalis. Pericranial temperature was servoregulated at 37.5±0.1° C. by surface heating or cooling. The inspired isoflurane concentration was adjusted to 1.0-1.5% in 50% O2/balance N2. The tail artery was cannulated. The animals were then prepared for MCAO as previously described [Mackensen et al. J. Neurosci. 21:4582-4592, 2001; Longa et al. Stroke 20:84-91, 1989]. A midline cervical incision was made and the right common carotid artery was identified. […] The internal carotid artery (ICA) was dissected distally until the origin of the pterygopalatine artery was visualized. Following surgical preparation, a 20 min interval was allowed for physiologic stabilization.
Five min before MCAO onset, heparin (50 IU intra-arterial) was given to prevent intra-arterial thrombosis. A 0.25-mm diameter nylon monofilament, prepared with a silicone tip, was inserted into the ECA stump and passed distally through the ICA (20 mm from carotid bifurcation) until resistance was felt and the filament was secured. At MCAO onset, isoflurane was reduced to 0.8-1.0%.
After 90 min of MCAO, the occlusive filament was removed. The anesthetic state and pericranial temperature regulation were continued for an additional 100 min. The tail artery catheter was removed and the wounds were closed with suture. Isoflurane was discontinued. Upon recovery of the righting reflex, the tracheas were extubated and the animals were placed in an O2 enriched environment (FIO2=50%) for 1 hour. Animals were then randomized to experimental groups (see below).
Animals were weighed, anesthetized with isoflurane, and decapitated. The brains were removed, frozen at −40° C. in 2-methylbutane, and stored at −70° C. Infarct volume was measured by comparing the volume of histologically normal tissue observed in the ischemic hemisphere to the expected volume of normal tissue as derived from measurements of the contralateral, non-ischemic hemisphere [Swanson et al. J. Cereb. Blood Flow Metab. 10:290-293, 1990]. Serial quadruplicate […] coronal sections were taken using a cryotome at […] over the rostral-caudal extent of the infarct. The sections were dried and stained with hematoxylin and eosin. A section from each 660-μm interval was digitized with a video camera controlled by an image analyzer. […] With the observer blinded to experimental condition, the following regions of interest (ROI) were cursor outlined: non-infarcted ipsilateral cerebral cortex, non-infarcted ipsilateral subcortex, contralateral cerebral cortex, and contralateral subcortex. The area within each ROI (mm2) was determined by automated counting of calibrated pixels. Ipsilateral non-infarcted cortex and subcortex areas were subtracted from the corresponding contralateral ROI values to estimate the area of ischemic tissue damage to control for brain edema [Lin et al. Stroke 24:117-121, 1993]. […]

NF-κB p65 = assay: Immunoblot of nuclear samples with NF-κB p65-specific antibody after MCAO; format: in vivo, rat; conditions: 225 μg/kg IV after 90 min MCAO; ischemic brain harvested six hr later
Description: as §3

CCCCCC[n+]1ccccc1-c1c2nc(c(-c3cccc[n+]3CCCCCC)c3ccc([n-]3)c(-c3cccc[n+]3CCCCCC)c3nc(c(-c4cccc[n+]4CCCCCC)c4ccc1[n-]4)C=C3)C=C2.[Mn+3] [MnTnHex-2-PyP^5+, Mn(III) 5,10,15,20-tetrakis(N-n-hexylpyridinium-2-yl)porphyrin]
Neurologic score ([1]; 225 μg/kg i.v. 5 min after reperfusion onset, P=0.002 vs vehicle): improved
Neurologic score ([1]; 225 μg/kg intra-arterial plus s.c. 6 hours after reperfusion onset, P=0.04 vs vehicle): improved
neuroscore (median±interquartile range) ([2]; 72 hrs post-SAH, 225 mg/kg twice per day i.p. begun 60 min post-SAH, n=14, 0=no deficit, maximal deficit 48, P=0.02 vs vehicle (14±21)): 2.5±9
deaths in treatment group ([2]; murine SAH, 225 mg/kg twice per day i.p., n=15, three mice died in vehicle group): One mouse in the MnTnHex-2-PyP^5+ group died at 2 days post-SAH
IL-6 concentration in brain (IL-6): decreased
post-ischemic NF-κB DNA binding to a κB consensus oligo (EMSA) (NF-κB): Marked reduction
right anterior cerebral artery diameter (mean±SD) ([3]; vs vehicle 82±36 μm, P=0.0005): 130±19 μm
right middle cerebral artery diameter (mean±SD) ([3]; vs vehicle 83±33 μm, P=0.0033): 123±29 μm
right internal carotid artery diameter (mean±SD) ([3]; vs vehicle 109±35 μm, P=0.015): 143±30 μm
basilar artery diameter (mean±SD) ([3]; vs vehicle 198±19 μm, P=0.723, no effect of treatment): 200±17 μm
TNF-α concentration in brain (TNF-α): decreased
cerebral infarct volume in the subcortex ([4]; 225 μg/kg i.v. 5 min after reperfusion onset, then twice a day s.c., P=0.01): reduced
reduction in total infarct volume ([4]; 225 μg/kg i.v. 5 min after reperfusion onset, then twice a day s.c., P=0.028): 32%
cerebral infarct volume in the cortex ([4]; 225 μg/kg i.v. 5 min after reperfusion onset, then twice a day s.c., P=0.05): reduced
cerebral infarct volume in the cortex ([4]; 225 μg/kg intra-arterial plus s.c. 6 hrs after reperfusion onset, then twice daily s.c., P=0.01): reduced
reduction in total infarct volume ([4]; 225 μg/kg intra-arterial plus s.c. 6 hrs after reperfusion onset, then twice daily s.c., P=0.03): 37%
Infarct size in the subcortex ([4]; 225 μg/kg intra-arterial plus s.c. 6 hrs after reperfusion onset, then twice daily s.c., P=0.58): not changed
NF-κB p65 nuclear translocation (immunoblot of nuclear samples) (NF-κB p65): inhibition
